“And” between values parts separate entries of the source, which are not always exact repeats. Equal entries are not always repeated.
Biological target: TEAD2 (Homo sapiens (Human), UniProt Q15562)
Assay: In vitro palmitoylation (TEAD2 autopalmitoylation, streptavidin blot)
Type: biochemical
Settings: compound at 10 μM
Summary of the method: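 Recombinant GST- or His6-TEAD2 (500 ng) preincubated 15 min with compound, then 30 min with 1 μM alkyne palmitoyl-CoA; click-labelled with biotin-azide (1 h, RT). Streptavidin-HRP blot band intensity quantified after SDS-PAGE; inhibition of autopalmitoylation relative to DMSO control.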

TEAD2, sequence (Q15562 whole entry): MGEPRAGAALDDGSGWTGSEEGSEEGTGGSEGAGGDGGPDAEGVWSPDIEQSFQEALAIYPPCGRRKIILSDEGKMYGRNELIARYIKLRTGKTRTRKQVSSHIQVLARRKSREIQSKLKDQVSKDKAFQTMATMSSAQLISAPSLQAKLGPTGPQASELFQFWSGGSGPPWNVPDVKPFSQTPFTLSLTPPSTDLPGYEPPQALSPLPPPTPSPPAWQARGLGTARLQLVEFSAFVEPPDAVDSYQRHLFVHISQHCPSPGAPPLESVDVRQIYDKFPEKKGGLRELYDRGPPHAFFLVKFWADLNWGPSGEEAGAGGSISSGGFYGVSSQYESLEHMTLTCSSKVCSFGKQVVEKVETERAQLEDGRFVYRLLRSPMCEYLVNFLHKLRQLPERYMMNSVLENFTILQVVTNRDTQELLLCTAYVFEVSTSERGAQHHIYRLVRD

| SMILES | inhibition at 10 µM (Table 2) [%] | further results |
| --- | --- | --- |
| CC12CC3CC(C)(C1)CC(c1ccc(NC(=O)c4cccc(Nc5ccccc5C(=O)O)c4)cc1)(C3)C2 [Compound 222] | 45 | – |
| CC12CC3CC(C)(C1)CC(c1ccc(Nc4ccc(Nc5cccc(C(=O)O)n5)cc4)cc1)(C3)C2 [Compound 201] | 43 | – |
| COc1ccc(Nc2ccc(N(C)c3ccc(C(F)(F)F)cc3)cc2)c(C(N)=O)c1 [compound 429] | 47 | – |
| O=C(O)C1CCCCC1Nc1ccc(C23CC4CC(CC(C4)C2)C3)cc1 (stereo not shown) [Compound 66] | 25 | – |
| O=C(O)c1cccc(Nc2cccc(C(=O)Nc3ccc(C45CC6CC(CC(C6)C4)C5)cc3)c2)c1 [Compound 235] | 84 | – |
| CN(c1cccc(Nc2ccc(C34CC5CC(CC(C5)C3)C4)cc2Cl)c1)c1ncccc1C(=O)O [Compound 135] | 100 | – |
| COc1ccc(Nc2ccc(N(C)c3ccc(N4CCOCC4)cc3)cc2)c(C(=O)O)c1 [CP-547] | – | inhibition at 10 µM (Table 3): 18% |
| O=C(O)[C@@H]1CCCN1C(=O)Nc1ccc(C23CC4CC(CC(C4)C2)C3)cc1 [Compound 38] | 7 | – |
| CCCCOc1ccc(Nc2ccc(N(C)c3ccc(C4CCCCC4)cc3)cc2C)c(C(=O)O)c1 [CP-628] | – | inhibition at 10 µM (Table 3): 40% |
| O=C(O)c1ccccc1Nc1ccc(Nc2ccc(C34CC5CC(CC(C5)C3)C4)cc2)nc1 [Compound 34] | 14 | – |
| CN(c1ccc(N(C)c2ccccc2C(=O)O)cc1)c1cccc(C(=O)NC23CC4CC(CC(C4)C2)C3)c1 [Compound 233] | 9 | – |
| COc1ccc(Nc2ccc(N(C)c3ccc(OC(F)(F)F)cc3)nc2)c(C(=O)O)c1 [CP-596] | – | inhibition at 10 µM (Table 3): 48% |
| NC(=O)c1ccccc1Nc1ccc(Nc2ccc(C34CC5CC(CC(C5)C3)C4)cc2Cl)cc1 [compound 272] | 77 | – |
| O=C(O)c1cccnc1CN1CCC(Nc2ccc(C34CC5CC(CC(C5)C3)C4)cc2Cl)C1 (stereo not shown) [Compound 137] | 99 | – |
| O=C(O)C1CCCN(Cc2ccc(Nc3ccc(C45CC6CC(CC(C6)C4)C5)cc3Cl)cc2)C1 (stereo not shown) [Compound 143] | 22 | – |
| O=C(O)C1CCCN(C(=O)c2ccc(Nc3ccc(C45CC6CC(CC(C6)C4)C5)cc3Cl)cc2)C1 (stereo not shown) [Compound 123] | 88 | – |
| CNS(=O)(=O)c1ccc(Nc2ccc(N(C)c3ccc(C4CCCCC4)cc3)cc2C)c(C(=O)O)c1 [CP-614] | – | inhibition at 10 µM (Table 3): 83% |
| COc1ccc(Nc2ccc(N(C)c3ccc(C4CCCCC4)nc3)cc2)c(C(=O)O)c1 [CP-578] | – | inhibition at 10 µM (Table 3): 31% |
| COc1ccc(Nc2cc(Nc3ccc(C4CCCCC4)cc3)cc(C(F)(F)F)c2)nc1C(=O)O [CP-661] | – | inhibition at 10 µM (Table 3): 77% |
| O=C(Nc1ccccc1C(=O)O)c1ccc(Nc2ccc(C34CC5CC(CC(C5)C3)C4)cc2Cl)cc1 [Compound 229] | 91 | – |
| O=C(O)c1cncc(Nc2cc(Nc3ccc(C45CC6CC(CC(C6)C4)C5)cc3Cl)cc(C(F)(F)F)c2)c1 [Compound 153] | 100 | – |
| O=C(O)c1cccc2nc(-c3cccc(C45CC6CC(CC(C6)C4)C5)c3)[nH]c12 [Compound 97] | 60 | – |
| COC(=O)c1cccnc1Nc1ccc(Nc2ccc(C34CC5CC(CC(C5)C3)C4)cc2Cl)cc1 [Compound 17] | 7 | – |

| SMILES | inhibition at 10 µM (Table 2) [%] | further results |
| --- | --- | --- |
| CCOC(=O)/C=C/c1ccccc1Nc1ccc(Nc2ccc(C34CC5CC(CC(C5)C3)C4)cc2)cc1 [Compound 14] | 0 | – |
| O=C(O)c1cccc(NC(=O)c2cccc(Nc3ccc(C45CC6CC(CC(C6)C4)C5)cc3)c2)c1 [Compound 240] | 62 | – |
| CCCCN(CCCC)C(=O)c1ccc(Nc2ccc(Nc3ccccc3C(=O)O)cc2)cc1 [Compound 175] | 70 | – |
| CNC(=O)c1ccc(Nc2ccc(N(C)c3ccc(C4CCCCC4)cc3)cc2C)c(C(=O)O)c1 [CP-632] | – | inhibition at 10 µM (Table 3): 73% |
| O=C(O)c1cccnc1Nc1ccc(S(=O)(=O)Nc2ccc(C34CC5CC(CC(C5)C3)C4)cc2Cl)cc1 [Compound 261] | 98 | – |
| CC(C)(C)OC(=O)c1ccc(Nc2ccc(Nc3ccccc3C(=O)O)cc2)cc1 | – | inhibition at 10 µM: 100% |
| Cc1cc(N(C)c2ccc(C3CCCCC3)cc2)ccc1Nc1cccc(C(=O)O)n1 [CP-636] | – | inhibition at 10 µM (Table 3): 68% |
| CN(c1ccc(Oc2ccc(C34CC5CC(CC(C5)C3)C4)cc2)cc1)c1ncccc1C(=O)O [Compound 196] | 100 | – |
| O=C(O)c1ccccc1Nc1ccc(Nc2ccc(OCC34CC5CC(CC(C5)C3)C4)cc2)cc1 [Compound 205] | 74 | – |
| COc1ccc(Nc2ccc(Oc3ccc(C45CC6CC(C)(CC(C)(C6)C4)C5)cc3Cl)cc2C)c(C(=O)O)c1 [CP-564] | – | inhibition at 10 µM (Table 3): 89% |
| CN(c1cnc(Nc2ccc(C34CC5CC(CC(C5)C3)C4)cc2Cl)cn1)c1ccccc1C(=O)O [Compound 144] | 100 | – |
| O=C(Cc1ccc(Nc2ncccc2C(=O)O)cc1)Nc1ccc(C23CC4CC(CC(C4)C2)C3)cc1 [Compound 184] | 71 | – |
| O=C(Nc1ccc(C23CC4CC(CC(C4)C2)C3)cc1Cl)c1cccc(Nc2ccccc2C(=O)O)c1 [Compound 242] | – | % of inhibition of TEAD2 palmitoylation at 10 μM (Table 2): 35% and 58% |
| O=C1CCc2ccccc2N1c1ccc(Nc2ccc(C34CC5CC(CC(C5)C3)C4)cc2)cc1 [Compound 15] | 12 | – |
| CNC(=O)c1nc(Nc2ccc(N(C)c3ccc(C4CCCCC4)cc3)cc2C)ccc1S(=O)(=O)NC [CP-653] | – | inhibition at 10 µM (Table 3): 24% |
| Cn1c(-c2cccc(Nc3ccc(C45CC6CC(CC(C6)C4)C5)cc3)c2)nc2cccc(C(=O)O)c21 [Compound 210] | 100 | – |
| CN(c1cccc(N(C)c2ncccc2C(=O)O)c1)c1ccc(C23CC4CC(CC(C4)C2)C3)cc1Cl [Compound 132] | 100 | – |
| CNS(=O)(=O)c1ccc(Nc2ccc(N(C)c3ccc(C4CCCCC4)cc3)cc2C)c(C#N)c1 [CP-657] | – | inhibition at 10 µM (Table 3): 18% |
| COc1ccc(Nc2ccc(N(C)c3ccc(SC(F)(F)F)cc3)cc2)c(C(=O)O)c1 [CP-622] | – | inhibition at 10 µM (Table 3): 94% |
| CN(c1ccc(Nc2ncccc2C(=O)OCCO)cc1)c1ccc(C23CC4CC(CC(C4)C2)C3)cc1Cl [Compound 12] | 85 | – |
| O=C(O)c1cccnc1CN1CCN(Cc2ccc(C34CC5CC(CC(C5)C3)C4)cc2Cl)CC1 [Compound 107] | 14 | – |
| COc1ccc(Nc2cccc(C(=O)Nc3ccc(C(F)(F)F)cc3)c2)c(C(=O)O)c1 [CP-586] | – | inhibition at 10 µM (Table 3): 40% |
| CC(=O)N(c1ccc(N(C(C)=O)c2ccccc2C(=O)O)cc1)c1ccc(C23CC4CC(CC(C4)C2)C3)cc1 [Compound 164] | 20 | – |

| SMILES | inhibition at 10 µM (Table 2) [%] | further results |
| --- | --- | --- |
| CN(c1cnn(Cc2ccc(C34CC5CC(CC(C5)C3)C4)cc2Cl)c1)c1ncccc1C(=O)O [Compound 133] | 93 | – |
| CN(C(=O)c1ccc(Nc2ccccc2C(=O)O)cc1)c1ccc(C23CC4CC(CC(C4)C2)C3)cc1 [Compound 192] | 99 | – |
| CNS(=O)(=O)c1ccc(Nc2ccc(N(C)c3ccc(C4CCCCC4)cc3)cc2C)nc1C(=O)O [CP-656] | – | inhibition at 10 µM (Table 3): 90% |
| O=C(Nc1ccc(C2CCCCC2)cc1Cl)c1cccc(Nc2ncccc2C(=O)O)c1 [CP-665] | – | inhibition at 10 µM (Table 3): 96% |
| O=S1(=O)N=C(Nc2ccc(Nc3ccc(C45CC6CC(CC(C6)C4)C5)cc3Cl)cc2)c2ccccc21 [Compound 18] | 35 | – |
| CN(C(=O)c1ccc(Nc2cccc(C(=O)O)n2)cc1)c1ccc(C23CC4CC(CC(C4)C2)C3)cc1 [Compound 206] | 52 | – |
| O=C(O)c1cccnc1Nc1ccc(C23CC4CC(CC(C4)C2)C3)cc1Cl [Compound 60] | 100 | – |
| COc1ccc(Nc2ccc(N(C)c3ccc(C4CCC(C)CC4)cc3)cc2)c(C(=O)O)c1 (stereo not shown) [CP-574] | – | inhibition at 10 µM (Table 3): 91% |
| COc1ccc(C(=O)O)c(Nc2ccc(Nc3ccc(C45CC6CC(CC(C6)C4)C5)cc3)cc2)c1 [Compound 251] | 27 | – |
| CC1(C)OC(C(=O)O)C(C(=O)Nc2cc(Nc3ccc(C45CC6CC(CC(C6)C4)C5)cc3Cl)cc(C(F)(F)F)c2)O1 (stereo not shown) [Compound 120] | 79 | – |
| O=C(O)c1cccc(NC(=O)c2ccc(Nc3ccc(C45CC6CC(CC(C6)C4)C5)cc3)cc2)c1 [Compound 198] | 99 | – |
| O=C(O)C1CNCC1Nc1ccc(Nc2ccc(C34CC5CC(CC(C5)C3)C4)cc2Cl)cc1 (stereo not shown) [Compound 93] | 72 | – |
| O=C(NCc1ccc(C23CC4CC(CC(C4)C2)C3)cc1)c1cccc(Nc2ccccc2C(=O)O)c1 [Compound 268] | 10 | – |
| Cc1cc(N(C)c2ccc(C3CCCCC3)cc2)ccc1Nc1ccc(NC2CCOCC2)cc1C(=O)O [CP-620] | – | inhibition at 10 µM (Table 3): 0% |
| O=C(O)c1cn(Cc2cccc(Nc3ccc(C45CC6CC(CC(C6)C4)C5)cc3Cl)c2)cn1 [Compound 127] | 27 | – |
| Cc1ccccc1Nc1ccc(Nc2ccc(C34CC5CC(CC(C5)C3)C4)cc2)cc1 [Compound 13] | 26 | – |
| O=C(O)Cn1ncc2cc(Nc3ccc(C45CC6CC(CC(C6)C4)C5)cc3Cl)ccc21 [Compound 101] | 62 | – |
| CN(c1ccc(C(=O)Nc2ccc(C34CC5CC(CC(C5)C3)C4)cc2)cc1)c1ncccc1C(=O)O [Compound 147] | 70 | – |
| CN(c1ccc(Nc2ccc(C34CC5CC(CC(C5)C3)C4)cc2)cc1)c1ccccc1C(=O)O [Compound 165] | – | % of inhibition of TEAD2 palmitoylation at 10 μM (Table 2): 85% |
| CC12CC3CC(C)(C1)CC(c1ccc(Nc4ccc(Nc5ccccc5C(=O)O)cc4)cc1)(C3)C2 [Compound 177] | 56 | – |
| O=C(Nc1ccc(C23CC4CC(CC(C4)C2)C3)cc1Cl)c1ccc(Nc2ncccc2C(=O)O)cc1 [Compound 183] | 100 | % of inhibition of TEAD2 palmitoylation at 10 μM (Table 2): 96% |
| O=C(O)c1ccccc1C(=O)Nc1ccc(Nc2ccc(C34CC5CC(CC(C5)C3)C4)cc2Cl)cc1 [compound 286, 2-((4-(4-((3r,5r,7r)-adamantan-1-yl)-2-chlorophenyl)amino)phenyl)carbamoyl) benzoic acid] | – | % of inhibition of TEAD2 palmitoylation at 10 μM (Table 2, listed as 293): 86% |
| COc1ccc(Nc2ccc(N(C)c3ccc(C45CC6CC(CC(C6)C4)C5)cc3)cc2F)c(C(=O)O)c1 [CP-537] | – | inhibition at 10 µM (Table 3): 73% |

Source: patent US12187722B2, “Small molecule inhibitors of TEAD transcription factors” (The General Hospital Corporation, priority 2019, dated 2025)
